Values quoted from earlier work, collected in patent US20170049679A1, “ORAL AND DENTAL HYGIENE AND CLEANING AGENTS FOR REDUCING TOOTH DISCOLORATION” (Henkel AG & Co. KGaA, priority 2014, published 2017).
Like-named read-outs stand apart in the source and are kept apart here. Blank lines part the entries; values can stand above or below the compound they belong to.

Solubility (in words) (20° C.): Nearly insoluble
Compound: Zinc hydroxycarbonate

Solubility (20° C.): 4 mg/mL
Compound: Zinc acetylacetonate

Compound: [Cl-].[Cl-].[Zn+2] [Zinc chloride]
Solubility (25° C.): 4320 mg/mL
